# Results as given in paper PMC7687371, “Quantitative in Vitro to in Vivo Extrapolation (QIVIVE) for Predicting Reduced Anogenital Distance Produced by Anti-Androgenic Pesticides in a Rodent Model for Male Reproductive Disorders” (Environmental Health Perspectives, 2020).
# Like-named read-outs stand apart in the source and are kept apart here. Marks after values point to notes of the source that are not given here.
# What was measured:
# [1] = PBK model first-order kinetic parameters fitted to in vivo ADME data; design: species or system rat; settings: PBK model parameter
# [2] = Fetal chemical exposure analysis (LC-QTOF) at GD21; type: in vivo, rat; settings: for Measured concentration in male fetuses: Sprague-Dawley, rat, in vivo, 40 mg/kg/day
# Method: Dams were decapitated under CO2 /oxygen anesthesia at GD21 and fetuses collected by cesarean section. Prior to decapitation of the fetuses, their BWs and AGDs were recorded. Blood from the dams was collected in heparinized vacutainer tubes, centrifuged at 125×g for 10 min at 4°C to prepare plasma, and, together with the amniotic fluid, frozen directly. Pooled trunk blood from all female and male fetuses of the same litter (female and male blood separately) was collected into heparin-treated capillary tubes approximately 90 min after dosing and the plasma was prepared and stored at −80°C until analysis for pesticides and selected metabolites by liquid chromatography quadrupole time-of-flight mass spectroscopy (LC-QTOF). Details about the LC-QTOF analyses are provided in “Method S1” in Supplemental Material. Amniotic fluid was collected from fetuses by pipetting, pooled within each litter, snap frozen in liquid nitrogen, and subsequently stored at −80 °C .
# Method S1. Chemical analysis of pesticide levels
# Acetonitrile, methanol, formic acid and 25% ammonium hydroxide, all of LC-MS grade and ethyl acetate were obtained from Sigma Aldrich, Schneldorf, Germany. Isolute bulk C-18 sorbent was obtained from Biotage, Sweden and was washed with acetonitrile and ethyl acetate and dried prior to use. Water was purified on a Milli Q system, Millipore Corporation, US.
# Pesticide standards were purchased from Dr. Ehrenstorfer (Augsburg, Germany), LGC-standards (Teddington, Middlesex, UK) and Sigma Aldrich (St. Louis, MO, USA). Acetonitrile used as solvents for the LC-QTOF was LiChrosolv Hypergrade. An ESI-L low concentration tuning mix from Agilent (Santa Clara, CA, USA) was used for tuning of the TOF. A reference solution was prepared containing Purine and HP0921 from Agilent (Santa Clara, CA, USA).
# Stock solutions of the pesticides were prepared at 1 mg/ml in acetonitrile, methanol or toluene.
# Standard mixtures containing the test compounds were prepared at a concentration of 10 µg/ml acetonitrile and used for preparation of calibration solutions. Isomers eluting very close to each other were avoided in these mixtures. […]
# added 200 µl of ice-cold acetonitrile in Eppendorf tubes. Internal standard was added in the form of 10 µl TPP (5 µg/ml) and the extraction was performed by whirl mixing. The tube was then stored on ice for 5 min and then centrifuged at 10,000 x g for 10 min at 4 °C (Ole Dich Instrument, Denmark). An aliquot of the supernatant was transferred to filter vials (0.45 µm) and analysed by […]
# Quality control samples were included in each analytical run. These were prepared using the same procedure as for the samples, though using amniotic fluid from untreated control Wistar rats extracted with acetonitrile containing three different levels of the relevant pesticide standards. The resulting spike levels were 0.04, 0.013 and 0.13 µg/ml. […]
# fluid or plasma from Sprague Dawley rats was transferred to an Eppendorf vial and added 150 µl of acetonitrile. 50 mg of isolute C-18 sorbent was added to the tube, which was shaken for 5 min, […]
# cooled to 4 °C and centrifuged at 10,000 x g for 10 min at 4 °C (Ole Dich Instrument makers, Denmark). 20 µl of the supernatant was transferred to an HPLC vial and mixed with 80 µl of 5%- 75% acetonitrile (this percentage was analyte dependent) prior to analysis by LC-MS.LC -QTOF […]
# Pesticide screening was carried out using a liquid chromatography-electrospray ionization-quadrupole-time of flight-mass spectrometer.
# The LC system was connected to a Bruker Daltonics, maXis qTOF mass spectrometer equipped with an electrospray ion source operated in positive ion mode (Bruker Daltonics, Bremen, Germany). The ion source settings were: nebulizer pressure 2 bars, drying gas flow 8 l/min, dry gas temperature 200 °C, capillary voltage 2500 V. The scan range was from 80 to 700 m/z with an acquisition rate of 2 Hz. Sodium formate dissolved in 50% 2-propanol was introduced in the ion […]
# androgen receptor (AR) = target: androgen receptor (AR); design: method as in Vinggaard et al. (2008); settings: ref Vinggaard et al. (2008); read-out: AR antagonism (IC50); cited from earlier work
# [3] = design: method as in U.S. EPA 2012; settings: EPI Suite, experimental preferred over modeled; ref U.S. EPA 2012; cited from earlier work
# [4] = design: method as in Sierra-Santoyo et al. (2008); settings: conversion of parent compound into active metabolite; ref Sierra-Santoyo et al. (2008); cited from earlier work
# NCI-H295R cells = assay: H295R steroidogenesis assay; type: cell-based, human; settings: for Effect on androgen (steroid) synthesis, in words: H295R steroidogenesis assay
# Method: To capture effects on steroid hormone synthesis (testosterone and androstendione), we tested all 12 pesticides in the H295R assay with the human adrenocortical carcinoma cell line NCI-H295R (American Type Culture Collection no. CRL-2,128, LGC Standards), as previously described ([Hecker et al. 2011]; [Rosenmai et al. 2013]). In brief, cells were cultured in DMEM/F-12 +glutamine medium with HEPES buffer (Invitrogen) containing 1% insulin-transferrin-sodium selenite plus Premix (VWR) and 2.5% Nu-Serum (BD Bioscience) at 37°C in a 5% CO2 atmosphere. The day before exposure, cells were seeded 300,000 per well in clear 24-well plates (VWR Corning). Cells were exposed for 48 h to control (Forskolin: 1μM , 10μM (Sigma-Aldrich); and Prochloraz: 0.3μM , 3μM (VWR-Bie and Berntsen) or test compounds. The vehicle (DMSO) concentration was kept constant in all wells (0.1%). After 48 h, the exposure culture medium was removed and stored at –80°C until the levels of 10 steroid hormones (testosterone, androstenedione, aldosterone, corticosterone, cortisol, dehydroepiandrosterone, 17α-hydroxyprogesterone , progesterone, estrone, and 17β-estradiol ) were quantified using the high-performance liquid chromatography–tandem mass spectrometry method described elsewhere ([Mortensen and Pedersen 2007]). Minor modifications were made to accommodate a smaller sample size and to include more hormones. The liquid chromatography system (Agilent 1100) was equipped with an Atlantis C18 column ( 2.1×150mm , 3μm ) (Waters Corp.) maintained at 40°C. The sample injection volume was 50μL . […] The mass spectrometer was a Quattro Ultima triple quadrupole instrument (Waters Corp.). […] Each pesticide was tested in 2-fold serial dilutions at concentrations between 0.8 and 50μM in three independent experiments, and hormone levels were normalized to the solvent controls containing 0.1% DMSO. Cell viability was evaluated by using the 3-(4,5-dimethylthiazol-2-yl)-2,5- diphenyltetrazolium bromide (MTT) assay (Sigma) as previously described ([Hecker et al. 2011]; [Rosenmai et al. 2013]). Fluorescence was measured (excitation 560 nm , emission 590 nm ) using a Wallac Victor2 1420 multilabel counter (PerkinElmer).
# Wistar rats [5] = settings: male, rat, in vivo, 40 mg/kg/day
# Method: In total, four in vivo exposure studies were conducted with pesticide exposures to pregnant rats during gestation and lactation to the selected compound (Table 2). […] For one selected dose of each compound, the internal body concentrations in dams and fetuses were determined by cesarean section at GD21. Due to the study outcomes from the third study, we conducted a fourth follow-up study on dimethomorph (Study 4).
# Pup weights and AGD were measured after birth at PD1 using a stereomicroscope with a micrometer eyepiece and were determined as the distance between the genital papilla and the anus. To discriminate between an anti-androgenic effect and stunted growth, the AGD index (AGDI) was calculated by dividing AGD by the cube root of the BW (as described by [Hass et al. 2007]). The estimation of AGDI effect doses by regression modeling required a standardized AGDI scale. Therefore, we normalized the AGDI values in relation to the dynamic range spanned by the mean AGDI of the male and the female controls as (38) normalized AGDI=mean(AGDI of male controls)−AGDI(exposed animal)/mean(AGDI of male controls)−mean(AGDI of female controls).
# [6] = ref Wetmore et al. (2012); cited from earlier work
# Wistar rats [7] = settings: rat, in vivo, cited from earlier work
# [8] = design: method as in EFSA 2009; settings: 24 h after dosing; ref EFSA 2009; cited from earlier work
# pregnant dams and pups = settings: ref EFSA's Draft Assessment Reports (DARs); cited from earlier work
smiles,measurement,setting,value
"C=CC(C)(O)C(=O)Nc1cc(Cl)cc(Cl)c1 (centres unmarked) [M2, 3′,5′-dichloro-2-hydroxy-2-methylbut-3-enanilide]",Urine excretion rate from kidney (L/h) KUrine,[1],0.2 L/h
same,Measured concentration in male fetuses,[2],3.4 µM
same,IC50,androgen receptor (AR),200 nM
same,log Kow,[3],2.95
same,"Metabolism rate in liver, Metabolite (L/h)",[4],0.9^h L/h
"C=CC1(C)OC(=O)N(c2cc(Cl)cc(Cl)c2)C1=O (centres unmarked) [Vinclozolin, vinclozolin]","Effect on androgen (steroid) synthesis, in words",NCI-H295R cells,negligible activity in terms of suppressing steroid synthesis
same,Portal GI absorption rate into liver (L/h) KAS,[1],0.5 L/h
same,Urine excretion rate from kidney (L/h) KUrine,[1],0.05 L/h
same,"Metabolism rate in liver, Total (L/h) KMetab",[1]; metabolic clearance,1.4 L/h
same,Measured concentration in male fetuses (μM),"[2]; fetal plasma GD21, mean litter value, dams dosed 40 mg/kg BW per day parent compound (Study 1)",<0.15 ^e μM
same,AGDI reduction (%),Wistar rats [5],26^d %
same,log Kow,[3],3.10
same,Unbound plasma fraction (%),[6],59^g %
same,AGDI (normalised to male and female controls) mean,Wistar rats [7]; 5 mg/kg,0.96
same,AGDI (normalised to male and female controls) mean,Wistar rats [7]; 10 mg/kg,0.80
same,AGDI (normalised to male and female controls) mean,Wistar rats [7]; 20 mg/kg,0.83
same,AGDI (normalised to male and female controls) mean,Wistar rats [7]; 24.5 mg/kg,0.93
same,AGDI (normalised to male and female controls) mean,Wistar rats [7]; 40 mg/kg,0.72
same,AGDI (normalised to male and female controls) mean,Wistar rats [7]; 80 mg/kg,0.46
same,AGDI (normalised to male and female controls) mean,Wistar rats [7]; 95.9 mg/kg,0.42
same,AGDI (normalised to male and female controls) mean,Wistar rats [7]; 160 mg/kg,0.25
same,AGDI ED10,Wistar rats [7],9.2 mg/kg BW
same,AGDI ED50,Wistar rats [7],78.7 mg/kg BW
"C=CC(C)(OC(=O)Nc1cc(Cl)cc(Cl)c1)C(=O)O (centres unmarked) [M1, 2-[[(3,5-dichlorophenyl)-carbamoyl]oxy]-2-methyl-3-butenoic acid]",Urine excretion rate from kidney (L/h) KUrine,[1],0.2 L/h
same,Measured concentration in male fetuses,[2],18.0 µM
same,IC50,androgen receptor (AR),2000 nM
same,log Kow,[3],3.52
same,"Metabolism rate in liver, Metabolite (L/h)",[4],2.8^h L/h
"C=CCOC(Cn1ccnc1)c1ccc(Cl)cc1Cl (centres unmarked) [Imazalil, imazalil]","Effect on androgen (steroid) synthesis, in words",NCI-H295R cells,inhibited testosterone synthesis
same,IC20,"NCI-H295R cells; Homo sapiens, NCI-H295R, read-out: Testosterone inhibition (IC20 µM)",500 nM
same,"Androstendione, LOEC",NCI-H295R cells; multiple contrast tests,0.8 µM
same,"Corticosterone, LOEC",NCI-H295R cells; multiple contrast tests,0.8 µM
same,"Cortisol, LOEC",NCI-H295R cells; multiple contrast tests,0.8 µM
same,"DHEA, LOEC",NCI-H295R cells; multiple contrast tests,0.8 µM
same,"Estradiol, LOEC",NCI-H295R cells; multiple contrast tests,0.8 µM
same,"OH-Progesterone, LOEC",NCI-H295R cells; multiple contrast tests,0.8 µM
same,"Progesterone, LOEC",NCI-H295R cells; multiple contrast tests,0.8 µM
same,"Testosterone, lowest observed effect concentration (LOEC)",NCI-H295R cells; multiple contrast tests,0.8 µM
same,Fecal excretion rate from gut (L/h) KFeces,[1],0.5 L/h
same,Portal GI absorption rate into liver (L/h) KAS,[1],1 L/h
same,Urine excretion rate from kidney (L/h) KUrine,[1],0.53 L/h
same,log Kow,[3],3.82
same,Number of metabolites discovered in urine and feces,[8],at least 25
same,Unbound plasma fraction (%),[6],4.8^g %
same,Critical toxicity,pregnant dams and pups,"Increased duration of gestation , effects on pups/fetuses related to maternal toxicity"
same,LOAEL (mg/kg bw),pregnant dams and pups,80 mg/kg bw
same,NOAEL (mg/kg bw),pregnant dams and pups,20 mg/kg bw
